Here are results for four molecules from US20250304616A1, “NOVEL PEPT[…] AND DESIGN” (priority 2020, published 2025).

This assay relates to recombinant rabies virus 1088 strain (1088/GLuc). Nature of the assay: microbe, parasite or virus in culture. In kind it is cell-based, rabies virus in Neuro-2a cells. The note with it: read-out: Anti-rabies activity.

SMILES strings stand for the structures. pIC50: −log10 of the molar value. Like-named read-outs stand apart in the source and are kept apart here.

Regarding `CC(C)CC(=O)OCC1=CCN2C3CC(NC(=O)Cc4ccccc4)C1C2CN(Cc1ccccc1)C3` (stereo not shown) [12aab], the pIC50 (Lyssavirus rabies, N2a, 72 h) is > 5.00. Same read-out and setting: the result for `COc1ccc(CN2C[C@H]3C[C@]4(C(=O)NCc5ccccc5)NC(=O)[C@H]3[C@H]2[C@H]4CC(C)C)cc1` (relative stereo) [IF-6, (3S*, 3aR*, 6S*, 7R*, 7aR*) —N-benzyl-7-isobutyl-1-(4-methoxybenzyl)-4-oxooctahydro-6H-3,6-methanopyrrolo[3,2-c]pyridine-6-carboxamide] reads > 5.00; that for `COc1ccc(CN2CC3CC4(C(=O)NCc5ccccc5)NC(=O)C3C2C4CC(C)C)cc1F` (stereo not shown) [IF-801], > 5.00. Turning to `COc1ccc(CN2C[C@@H]3C[C@H]4C(=O)N[C@]3(C(=O)NCc3ccccc3)[C@@H]2[C@@H]4CC(C)C)cc1` (relative stereo) [IB-5, (3S, 3aS, 6R′, 7R*, 7aS*) —N-benzyl-7-isobutyl-1-(4-methoxybenzyl)-5-oxooctahydro-3@H-3,6-methanopyrrolo[3,2-b]pyridine-3a-carboxamide], the pIC50 is > 5.00.
